The numbers were not newly measured in patent publication US12605354B2, “Azelaic acid esters in the treatment or prevention of dyslipidemia and associated conditions” (NEW FRONTIER LABS, LLC, priority 2020, dated 2026), which cites them from elsewhere.

Read-outs that look alike come from different tables or passages of the source.

For series [1] the following is noted: 15-year study [49]; cited from earlier work.
For series [2], the system named is 16 subjects with Type II diabetes. Particulars: cited from earlier work.
Series [3] deals with 4750 prediabetic subjects. Particulars: cited from earlier work.
The conditions of series [4]: cited from earlier work; for Hypoglycemia: reference 51.
A further series has as its system statin-naïve individuals. Particulars: 1 year (T2D), reference 52, cited from earlier work; for LDL/HDL, decrease: statin-naïve individuals.
Where [5] appears, read: 28-day study in 16 subjects with Type II diabetes [47].
The mark [6] stands for this setting: 8 weeks (T2D risk), reference 48.
Setting [7] is: meta-analysis, trials of at least 8 weeks, compared to placebo or no treatment [48].

Regarding `CN(C)C(=N)N=C(N)N` [Metformin, metformin], the “reduction of the incidence of diabetes compared to placebo” value in series [1] is 17%. Besides, the “Cholesterol/HDL, decrease” value in series [2] (4 weeks (T2D), reference 47) is listed as 9.2% decrease. Further, in series [2] (setting [5]), the fasting glucose result is “reduced fasting glucose” and the insulin levels entry is “no effect on insulin levels”. In addition, in series [3] (setting [6]), the “Fasting insulin, decrease” value is listed as 14.4% decrease and the “Fasting plasma glucose, decrease” value is recorded as 4.5% decrease. For the same compound, in series [3] (setting [7]), the “change of LDL” value was −5.6%, the “change of fasting glucose” value is −4.5%, the “change of fasting insulin” value is reported as −14.4% and the “increase of HDL” value is given as 5.0%. In series [4] ([53]), the “patients who cannot tolerate metformin at all” value is reported as 5% and the “users with severe gastrointestinal side effects” value is 1 of 4. For the same compound, in series [4] (multiple studies), the Hypoglycemia result is recorded as “infrequent event”. For the same compound, in series [4] (multiple studies, listed as metformin), the Hypoglycemia entry is reported as “Neither metformin nor DEA administration as presented herein induced hypoglycemia”. Further, in series [4] (multiple studies, reference 53), the Side effects result is on record as “severe gastrointestinal effects”. In the series with statin-naïve individuals, the “LDL/HDL, decrease” value is 11.7% decrease; the “HDL, increase” value is 5% increase; the “LDL, decrease” value was 5.6% decrease. Besides, the “LDL/HDL, decrease” value in the series on statin-naïve individuals (listed as metformin) is recorded as 11.7%.
